Numbering of substitutions follows the chain as printed.
Legend:
Conditions in all cases: for ΔpEC50±SEM: relative to WT, n = 3 in triplicate; for ΔpEC50±SEM / Span±SEM: mean ± SEM; for Span±SEM: window between maximal response (Emax) and vehicle, n = 3
[1] = target: T1, PTH1R L436A mutant (Homo sapiens, UniProt Q03431, L436A); test: cAMP accumulation assay (GloSensor), PTH1R L436A; type: cell-based
T1 construct: a flag-tag was fused to the N terminal of full-length PTH1R (WT or mutant); expressed in transfected cells; host or cells: HEK293T
T1 sequence (Q03431 27-593 L436A): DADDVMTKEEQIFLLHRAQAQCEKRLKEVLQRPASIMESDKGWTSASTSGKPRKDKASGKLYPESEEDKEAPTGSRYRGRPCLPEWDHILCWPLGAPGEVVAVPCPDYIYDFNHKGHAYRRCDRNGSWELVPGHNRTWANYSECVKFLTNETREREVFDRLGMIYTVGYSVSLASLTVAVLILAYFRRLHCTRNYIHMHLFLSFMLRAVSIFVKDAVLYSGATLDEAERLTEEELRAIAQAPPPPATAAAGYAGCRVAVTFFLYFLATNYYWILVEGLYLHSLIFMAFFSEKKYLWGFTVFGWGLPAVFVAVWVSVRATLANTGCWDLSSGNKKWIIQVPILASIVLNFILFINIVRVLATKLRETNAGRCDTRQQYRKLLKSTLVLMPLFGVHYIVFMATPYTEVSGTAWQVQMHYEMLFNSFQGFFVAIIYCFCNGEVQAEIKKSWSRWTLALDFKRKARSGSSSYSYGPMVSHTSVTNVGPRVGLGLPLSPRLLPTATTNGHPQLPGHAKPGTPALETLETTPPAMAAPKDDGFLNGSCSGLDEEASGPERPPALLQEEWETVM
Experimental: (§1) Human embryonic kidney 293 T (HEK293T, ATCC: CRL-1573) cells were transfected with a plasmid mixture consisting of pcDNA3.1-flag-PTH1R (WT or mutants) and the cAMP biosensor GloSensor-22F (Promega) at a ratio of 2:1 (see Supplementary Table 7 for a list of primers used in this study). After 24 h, transfected cells were plated onto a 384-well plate, which was treated with cell adherent reagent (Applygen) in advance. After another 12 h, cells were treated with Hank’s balanced salt solution for starvation and then incubated in CO2-independent media containing 4% GloSensor cAMP Reagent (Promega) at a volume of 5 μl per well and incubated for 20 min at RT before measurements for baseline luminescence (Spark Multimode microplate reader, TECAN). Next, test ligands were added at different concentrations from 10^−6 to 10^−13 M before second measurement. Finally, data were normalized to 100% of the maximal PTH (1-34) response for WT PTH1R using a sigmoidal dose-response in GraphPad Prism.
(§2) Statistical analyses were performed on at least three individual datasets and analysed using GraphPad Prism software. Bars represent differences in the calculated agonist potency (pEC50) and maximum agonist response (Emax) for each mutant relative to the WT receptor. Data are mean± s.e.m. from at least three independent experiments, performed in triplicates. ns, not significant, ^nsP > 0.01; ^*P < 0.01; ^**P < 0.001; ^***P < 0.0001 (one-way analysis of variance (ANOVA) followed by Dunnett’s test, compared with the response of the WT). For dose-response experiments, data were normalized and analyzed using nonlinear curve fitting for the log (agonist) versus response (three parameters) curves.

[2] = target: T2, PTH1R V285A mutant (Homo sapiens, UniProt Q03431, V285A); test: cAMP accumulation assay (GloSensor), PTH1R V285A; type: cell-based
T2 construct: a flag-tag was fused to the N terminal of full-length PTH1R (WT or mutant); expressed in transfected cells; host or cells: HEK293T
T2 sequence (Q03431 27-593 V285A): T1 sequence (Q03431 27-593 L436A) with V259A, A410L
Experimental: as §1, §2

[3] = system: PTH1R F424A mutant; test: cAMP accumulation assay (GloSensor), PTH1R F424A; type: cell-based, human
Experimental: as §1, with “After” for “Human embryonic kidney 293 T (HEK293T, ATCC: CRL-1573) cells were transfected with a plasmid mixture consisting of pcDNA3.1-flag-PTH1R (WT or mutants) and the cAMP biosensor GloSensor-22F (Promega) at a ratio of 2:1 (see Supplementary Table 7 for a list of primers used in this study). After”
as §2, with “Bars represent differences in the calculated agonist potency (pEC50) and maximum agonist response (Emax) for each mutant relative to the WT receptor.” left out

Row | Substance | span (from the WT) ([1]; PTH1R L4367.34A, replicate 1) | ΔpEC50 (from the WT) ([1]; PTH1R L4367.34A, replicate 1) | span (from the WT) ([1]; PTH1R L4367.34A, replicate 2) | ΔpEC50 (from the WT) ([1]; PTH1R L4367.34A, replicate 2) | span (from the WT) ([1]; PTH1R L4367.34A, replicate 3) | ΔpEC50 (from the WT) ([1]; PTH1R L4367.34A, replicate 3) | ΔpEC50±SEM [1] | ΔpEC50 (from the WT) ([1]; replicate 1) | ΔpEC50 (from the WT) ([1]; replicate 2) | ΔpEC50 (from the WT) ([1]; replicate 3) | Span±SEM [1] | span (from the WT) ([2]; PTH1R V2853.33A, replicate 1) | ΔpEC50 (from the WT) ([2]; PTH1R V2853.33A, replicate 1) | span (from the WT) ([2]; PTH1R V2853.33A, replicate 2) | ΔpEC50 (from the WT) ([2]; PTH1R V2853.33A, replicate 2) | span (from the WT) ([2]; PTH1R V2853.33A, replicate 3) | ΔpEC50 (from the WT) ([2]; PTH1R V2853.33A, replicate 3) | ΔpEC50±SEM [2] | ΔpEC50 (from the WT) ([2]; replicate 1) | ΔpEC50 (from the WT) ([2]; replicate 2) | other results
1 | H-AVAEIQLMHQRAKWIQDARRRAFLHKLIAEIHTAEI-OH [LA-PTH, long-acting PTH analog, modified PTH/PTHrP hybrid] | 237.8 | 0.088 | 171.3 | -0.137 | 194.5 | 0.085 | 0.01±0.07 | 0.088 | -0.137 | 0.085 | 201.20±19.49 | 160.1 | -0.326 | 211.8 | -0.5 | 140.2 | -0.433 | -0.42±0.05 | -0.326 | -0.5 | ΔpEC50 (from the WT) ([2]; replicate 3): -0.433; Span±SEM [2]: 170.70±21.34; span (from the WT) ([3]; PTH1R F4246.56A, replicate 1): 141.3; ΔpEC50 (from the WT) ([3]; PTH1R F4246.56A, replicate 1): -1.04; span (from the WT) ([3]; PTH1R F4246.56A, replicate 2): 117.4; ΔpEC50 (from the WT) ([3]; PTH1R F4246.56A, replicate 2): -1.083; span (from the WT) ([3]; PTH1R F4246.56A, replicate 3): 173.2; ΔpEC50 (from the WT) ([3]; PTH1R F4246.56A, replicate 3): -1.36; ΔpEC50±SEM [3]: -1.16±0.1; ΔpEC50 (from the WT) ([3]; replicate 1): -1.04; ΔpEC50 (from the WT) ([3]; replicate 2): -1.083; ΔpEC50 (from the WT) ([3]; replicate 3): -1.36
2 | H-AVSEHQLLHDKGKSIQDLRRRELLEKLL-{Aib}-KLHTA-NH2 [ABL, Abaloparatide, an analog of PTHrP, short-acting PTH1R agonist] | 166.5 | -0.45 | 265 | -0.73 | 245.1 | -0.7 | -0.63±0.09 | -0.45 | -0.73 | -0.7 | 225.53±30.07 | 158.8 | -1.921 | 185.5 | -2.009 | 175.8 | -2.246 | -2.06±0.1 | -1.921 | -2.009 | ΔpEC50 (from the WT) ([2]; replicate 3): -2.246; Span±SEM [2]: 173.37±7.80; span (from the WT) ([3]; PTH1R F4246.56A, replicate 1): 148.5; ΔpEC50 (from the WT) ([3]; PTH1R F4246.56A, replicate 1): -1.943; span (from the WT) ([3]; PTH1R F4246.56A, replicate 2): 140.3; ΔpEC50 (from the WT) ([3]; PTH1R F4246.56A, replicate 2): -2.006; span (from the WT) ([3]; PTH1R F4246.56A, replicate 3): 170.8; ΔpEC50 (from the WT) ([3]; PTH1R F4246.56A, replicate 3): -2.077; ΔpEC50±SEM [3]: -2.01±0.04; ΔpEC50 (from the WT) ([3]; replicate 1): -1.943; ΔpEC50 (from the WT) ([3]; replicate 2): -2.006; ΔpEC50 (from the WT) ([3]; replicate 3): -2.077; Span±SEM [3]: 153.20±9.11
3 | H-SVSEIQLMHNLGKHLNSMERVEWLRKKLQDVHNF-OH [PTH, Teriparatide, human PTH 1-34, long-acting peptide agonist of PTH1R] | 270.9 | 0.137 | 204.3 | 0.015 | 186.9 | 0.016 | 0.06±0.04 | 0.137 | 0.015 | 0.016 | 220.70±25.60 | 118.6 | -0.181 | 150.8 | -0.072 | 181.1 | -0.211 | -0.15±0.04 | -0.181 | -0.072 | ΔpEC50 (from the WT) ([2]; replicate 3): -0.211; Span±SEM [2]: 152.43±15.43; span (from the WT) ([3]; PTH1R F4246.56A, replicate 1): 181.9; ΔpEC50 (from the WT) ([3]; PTH1R F4246.56A, replicate 1): -1.332; span (from the WT) ([3]; PTH1R F4246.56A, replicate 2): 192.6; ΔpEC50 (from the WT) ([3]; PTH1R F4246.56A, replicate 2): -1.492; span (from the WT) ([3]; PTH1R F4246.56A, replicate 3): 166.2; ΔpEC50 (from the WT) ([3]; PTH1R F4246.56A, replicate 3): -1.466; ΔpEC50±SEM [3]: -1.43±0.05; ΔpEC50 (from the WT) ([3]; replicate 1): -1.332; ΔpEC50 (from the WT) ([3]; replicate 2): -1.492; ΔpEC50 (from the WT) ([3]; replicate 3): -1.466; Span±SEM [3]: 143.97±16.16
